Data: ChEMBL document CHEMBL1124159, “Synthesis and structure-activity relationships of 2-sulfonamido-1,3,4,6,7,11b alpha-hexahydro-2H-benzo[a]quinolizines as alpha 2-adrenoceptor antagonists” (J Med Chem, 1988)

Experiments:
[1] = biological target: T1, Adrenergic receptor alpha-2 (Rattus norvegicus, UniProt P22086+P19328+P22909); test: Antagonistic activity against alpha-2 adrenergic receptor in rat vas deferens; assay type: functional, tissue-based
T1 sequence (P22086 whole entry): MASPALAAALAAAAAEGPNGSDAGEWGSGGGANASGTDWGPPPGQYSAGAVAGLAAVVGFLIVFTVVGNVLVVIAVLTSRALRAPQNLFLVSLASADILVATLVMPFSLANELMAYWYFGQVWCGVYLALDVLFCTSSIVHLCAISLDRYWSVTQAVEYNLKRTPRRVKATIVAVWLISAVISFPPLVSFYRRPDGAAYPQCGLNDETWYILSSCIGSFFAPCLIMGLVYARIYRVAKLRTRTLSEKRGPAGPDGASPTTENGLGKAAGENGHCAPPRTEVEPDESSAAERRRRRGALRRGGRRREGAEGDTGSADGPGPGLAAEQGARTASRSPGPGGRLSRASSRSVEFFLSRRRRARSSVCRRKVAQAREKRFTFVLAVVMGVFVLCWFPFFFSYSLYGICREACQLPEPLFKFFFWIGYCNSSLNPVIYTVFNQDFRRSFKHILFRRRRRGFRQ
T1 sequence (P19328 whole entry): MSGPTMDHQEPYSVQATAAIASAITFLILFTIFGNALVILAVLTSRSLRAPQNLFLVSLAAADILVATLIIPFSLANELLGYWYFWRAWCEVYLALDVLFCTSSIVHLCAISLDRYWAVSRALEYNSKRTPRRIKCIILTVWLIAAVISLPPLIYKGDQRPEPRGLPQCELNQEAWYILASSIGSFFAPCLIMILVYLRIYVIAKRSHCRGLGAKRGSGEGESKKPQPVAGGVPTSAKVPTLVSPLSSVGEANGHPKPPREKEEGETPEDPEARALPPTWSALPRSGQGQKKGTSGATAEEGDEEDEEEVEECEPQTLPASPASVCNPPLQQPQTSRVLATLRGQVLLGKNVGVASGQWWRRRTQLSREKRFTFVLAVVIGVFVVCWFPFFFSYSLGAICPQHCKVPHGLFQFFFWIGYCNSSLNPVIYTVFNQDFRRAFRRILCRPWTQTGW
T1 sequence (P22909 whole entry): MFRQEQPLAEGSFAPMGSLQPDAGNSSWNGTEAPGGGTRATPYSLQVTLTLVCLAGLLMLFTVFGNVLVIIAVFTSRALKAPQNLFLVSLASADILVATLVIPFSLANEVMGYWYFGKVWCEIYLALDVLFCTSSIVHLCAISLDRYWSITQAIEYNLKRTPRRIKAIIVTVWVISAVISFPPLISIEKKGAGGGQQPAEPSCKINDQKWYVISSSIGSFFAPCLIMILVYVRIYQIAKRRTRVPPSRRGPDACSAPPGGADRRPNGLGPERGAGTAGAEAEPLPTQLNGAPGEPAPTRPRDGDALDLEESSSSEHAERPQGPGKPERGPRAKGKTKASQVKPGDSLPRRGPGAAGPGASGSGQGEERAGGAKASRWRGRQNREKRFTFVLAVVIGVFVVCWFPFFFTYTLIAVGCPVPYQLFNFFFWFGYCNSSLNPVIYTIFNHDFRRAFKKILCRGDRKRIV

[2] = biological target: T2, Adrenergic receptor alpha-1 (Rattus norvegicus, UniProt P15823+P23944+P43140); test: Antagonistic activity against alpha-1-adrenoceptor in isolated rat anococcygeus muscle; assay type: functional, tissue-based, Muscle tissue
T2 sequence (P15823 whole entry): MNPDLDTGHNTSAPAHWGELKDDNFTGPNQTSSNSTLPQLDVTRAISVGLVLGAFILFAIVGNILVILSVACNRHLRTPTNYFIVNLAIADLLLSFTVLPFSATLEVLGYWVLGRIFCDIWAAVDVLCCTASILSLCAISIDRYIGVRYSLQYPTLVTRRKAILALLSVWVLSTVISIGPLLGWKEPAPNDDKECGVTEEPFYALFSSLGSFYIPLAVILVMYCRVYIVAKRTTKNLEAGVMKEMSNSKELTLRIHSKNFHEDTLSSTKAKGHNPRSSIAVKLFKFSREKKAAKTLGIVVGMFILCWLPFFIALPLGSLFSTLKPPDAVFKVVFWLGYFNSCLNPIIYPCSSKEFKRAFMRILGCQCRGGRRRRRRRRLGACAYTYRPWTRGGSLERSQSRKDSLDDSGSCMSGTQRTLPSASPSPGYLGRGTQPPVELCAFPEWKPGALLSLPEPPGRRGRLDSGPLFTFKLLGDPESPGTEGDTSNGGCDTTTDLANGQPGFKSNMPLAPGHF
T2 sequence (P23944 whole entry): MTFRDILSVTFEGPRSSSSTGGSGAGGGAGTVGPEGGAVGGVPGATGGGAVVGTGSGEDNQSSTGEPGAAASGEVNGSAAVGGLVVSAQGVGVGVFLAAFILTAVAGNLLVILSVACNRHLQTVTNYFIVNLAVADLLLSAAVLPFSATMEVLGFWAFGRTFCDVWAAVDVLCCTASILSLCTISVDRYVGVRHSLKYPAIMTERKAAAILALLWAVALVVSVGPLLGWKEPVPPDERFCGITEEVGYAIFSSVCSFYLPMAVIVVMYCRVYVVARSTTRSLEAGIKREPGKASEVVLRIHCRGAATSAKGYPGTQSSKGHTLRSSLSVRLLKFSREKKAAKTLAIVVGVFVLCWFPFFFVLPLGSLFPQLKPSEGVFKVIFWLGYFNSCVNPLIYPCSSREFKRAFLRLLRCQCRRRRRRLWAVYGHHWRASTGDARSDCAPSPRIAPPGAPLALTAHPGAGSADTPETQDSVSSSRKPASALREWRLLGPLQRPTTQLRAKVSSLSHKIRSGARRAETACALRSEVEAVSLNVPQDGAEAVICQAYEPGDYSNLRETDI
T2 sequence (P43140 whole entry): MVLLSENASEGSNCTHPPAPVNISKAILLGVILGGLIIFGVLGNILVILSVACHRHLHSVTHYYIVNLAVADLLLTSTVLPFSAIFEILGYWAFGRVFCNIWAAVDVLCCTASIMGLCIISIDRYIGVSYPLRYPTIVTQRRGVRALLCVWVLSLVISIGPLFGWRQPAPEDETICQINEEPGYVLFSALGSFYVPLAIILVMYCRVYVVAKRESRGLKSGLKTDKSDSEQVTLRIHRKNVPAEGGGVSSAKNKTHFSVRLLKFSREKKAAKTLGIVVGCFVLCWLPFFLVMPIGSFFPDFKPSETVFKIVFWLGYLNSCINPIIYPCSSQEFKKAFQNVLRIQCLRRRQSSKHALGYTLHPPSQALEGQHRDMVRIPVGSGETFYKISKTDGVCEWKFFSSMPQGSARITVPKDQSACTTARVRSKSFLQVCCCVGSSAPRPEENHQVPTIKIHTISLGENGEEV

[3] = biological target: T2, Adrenergic receptor alpha-1; test: Antagonistic activity against alpha-1 adrenergic receptor in rat anococcygeus muscle

CS(=O)(=O)N[C@@H]1CCN2CCc3ccccc3[C@@H]2C1
pA2 [1]: 6.27 | pA2 [2]: 5.33

CCCS(=O)(=O)N(C)[C@@H]1CCN2CCc3ccccc3[C@@H]2C1 (stereo in doubt)
pA2 [1]: 8.5 | pA2 [3]: 7.2

CC(C)CS(=O)(=O)N(C)[C@@H]1CCN2CCc3ccccc3[C@@H]2C1 (stereo in doubt)
pA2 [1]: 8.05 | pA2 [3]: 6.9
